In brackets after ≈: the same amount, converted by molar mass. Read-outs that look alike come from different tables or passages of the source. Where a SMILES comes first, the peptide text is derived from it. Bridges are numbered along the chain shown (N, C = ends). [ ]: non-standard residue; d: D form. The star is where a group is joined. Decanoyl = CCCCCCCCCC(=O)*; Octanoyl = CCCCCCCC(=O)*; Dab = NCC[C@H](N)C(=O)O; Abu = CC[C@H](N)C(=O)O
Key:
[1] = tested on: E. coli IH3080; test: Sensitization to rifampin: growth inhibition around wells on LB plates containing rifampin; format: cell-based, Escherichia coli; details: 4 μg of compound
[2] = tested on: K. pneumoniae F144
Procedure: Polymyxin B sulfate (Sigma-Aldrich, St. Louis, Mo., USA) was used as a control. […] The bacterial test strains originated from ATCC (10 strains), CCUG (11 strains), and NCTC (3 strains). Fourteen (14) strains (the F-strains) were purchased from Mobidiag Ltd., Helsinki, Finland.
(§1) The inocula were prepared by adjusting the bacterial suspensions to a density equivalent to OD546 nm˜0.3 (˜10^8 CFU/ml˜0.5 McFarland) the yeast suspension to a density equivalent to OD546 nm˜0.75 (˜2×10^7 CFU/ml)._The suspensions were diluted to 10^7 CFU/ml. The plates were inoculated by using a Denley Multipoint Inoculator, 1 μl per spot corresponding to approx. 10^4 CFU/spot. Plates were incubated for 16-20 hours at 35° C.

[3] = target: brush-border membrane (BBM) from the renal cortex; test: Inhibition of binding of radiolabelled gentamycin to brush-border membrane vesicles; details: rat renal cortex BBM vesicles; 20 μM [3H] gentamycin; 60 min at 4° C.
Description: The binding of the compounds according to this invention to isolated brush-border membrane (BBM) from the renal cortex can be measured indirectly by measuring their ability to inhibit the binding of radiolabelled gentamycin to BBM. Accordingly, the compounds according to this invention that have less affinity to BBM than for example polymyxin B inhibit the binding of radiolabelled gentamycin to a lesser degree than does polymyxin B.
BBM was isolated from the renal cortex of male albino rats by using the Mg^2+/EGTA precipitation technique as described by Nagai et al. (2006). The binding of gentamycin was measured, according to the method described by Nagai et al. (2006) by incubating BBM vesicles (20 μl) in 10 mM HEPES (pH 7.5) with 300 mM mannitol in the presence of 20 μM [^3H] gentamycin (American Radiolabeled Chemicals, Inc. (St. Louis, Mo., U.S.A.) with or without the compound to be tested or a positive control. After an incubation of 60 min at 4° C., 1 ml of ice-cold buffer described above was added, and the mixture was filtered through a Millipore filter (0.45 μm; HAWP). The filter was washed with the buffer and the radioactivity remaining in the filter was measured by using a liquid scintillation counter. The IC50 values were determined as in Nagai et al. (2006) using the Hill equation.

[4] = tested on: Pseudomonas aeruginosa ATCC 27853; test: Growth inhibition around wells on LB agar plates; format: cell-based; details: Ps. aeruginosa ATCC 27853
In short: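 Activity against Pseudomonas aeruginosa ATCC 27853 was assessed by agar well diffusion on LB plates. A suspension of about 10^8 cells/ml in 0.9% NaCl was spread over the agar and the excess removed. Once the surface had dried, 2 mm wells were drilled and filled with peptide dissolved in 0.9% NaCl. Plates were incubated 18 h at 37° C, and inhibition zone diameters were converted to areas in square mm.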

[5] = tested on: E. coli IH3080; test: Growth inhibition around wells on LB agar plates; format: cell-based, Escherichia coli
In short: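 Growth inhibition of encapsulated E. coli IH3080 (K1:O018) was assessed on LB agar plates. A suspension of about 10^8 cells/ml in 0.9% NaCl, made from an overnight LB agar culture, was spread across the plate surface and the excess removed. After drying, 2 mm wells were drilled, with 0.9% NaCl as control. Following 18 h at 37° C., inhibition zone diameters around wells were converted to areas in square mm.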

[6] = tested on: E. coli F18; format: cell-based, Escherichia coli
Procedure: The MIC values of NAB 739, NAB 740, and NAB7061 were determined by using the agar dilution method according to the CLSI protocol M7-A7. Polymyxin B sulfate (Sigma-Aldrich, St. Louis, Mo., USA) was used as a control. […]; two-fold increments) of the test substances were used. The bacterial test strains originated from ATCC (10 strains), CCUG (11 strains), and NCTC (3 strains). Fourteen (14) strains (the F-strains) were purchased from Mobidiag Ltd., Helsinki, Finland. Besides bacteria, the MIC was also determined for the yeast Candida albicans (ATCC 28366 from ATCC).
as §1

[7] = tested on: Acinetobacter baumannii ATCC 19606; test: Growth inhibition around wells on LB agar plates; format: cell-based; details: A. baumannii ATCC 19606
[8] = tested on: A. baumannii ATCC 19606; test: Sensitization to rifampin: growth inhibition around wells on LB plates containing rifampin; format: cell-based, Acinetobacter baumannii; details: 4 μg
[9] = tested on: Ps. aeruginosa ATCC 27853; test: as above; format: cell-based, Pseudomonas aeruginosa; details: 4 μg

Compound | growth inhibition around a well in the presence of rifampin ([1]; rifampin 0 μg/ml) [square millimeters] | growth inhibition around a well in the presence of rifampin ([1]; rifampin 0.1 μg/ml) [square millimeters] | growth inhibition around a well in the presence of rifampin ([1]; rifampin 1.0 μg/ml) [square millimeters] | MIC ([2]; K. pneumoniae F144) | IC50 [3] [µM] | growth inhibition around a well ([4]; 10 μg) [square millimeters] | growth inhibition around a well ([5]; 4 μg of compound per well, listed as Polymyxin B sulfate) [square millimeters] | MIC [6] [µg/mL] | growth inhibition around a well ([7]; 4 μg) [square millimeters] | growth inhibition around a well ([7]; 10 μg) [square millimeters] | growth inhibition around a well ([4]; 4 μg) [square millimeters] | growth inhibition around a well in the presence of rifampin ([8]; rifampin 0 μg/ml) [square millimeters] | growth inhibition around a well in the presence of rifampin ([8]; rifampin 0.1 μg/ml) [square millimeters] | growth inhibition around a well in the presence of rifampin ([8]; rifampin 0.3 μg/ml) [square millimeters] | growth inhibition around a well in the presence of rifampin ([9]; rifampin 0 μg/ml) [square millimeters] | growth inhibition around a well in the presence of rifampin ([9]; rifampin 0.3 μg/ml) [square millimeters] | growth inhibition around a well ([5]; 10 μg of compound per well) [square millimeters] | growth inhibition around a well in the presence of rifampin ([9]; rifampin 0.1 μg/ml) [square millimeters] | MIC ([2]; F144) [µg/mL] | growth inhibition around a well ([5]; 4 μg of compound per well) [square millimeters]
Polymyxin B [reference compound] | 79 | 95 | 104 | 1 µg/mL | 39.3 ± 5.5 | 133 | 95 | 0.5 | – | – | – | – | – | – | – | – | – | – | – | –
CCCCCCCC(=O)N[C@H](C(=O)N[C@H](CO)C(=O)N[C@H]1CCNC(=O)[C@H]([C@@H](C)O)NC(=O)[C@H](CCN)NC(=O)[C@H](CCN)NC(=O)[C@H](CC(C)C)NC(=O)[C@@H](Cc2ccccc2)NC(=O)[C@H](CCN)NC1=O)[C@@H](C)O [NAB 739, OA-Thr-DSer-cy[Dab-Dab-DPhe-Leu-Dab-Dab-Thr-]] (Octanoyl-T[dS][Dab][Dab][dF]L[Dab][Dab]T; lactam 3-C) | 133 | 177 | 201 | – | 264 ± 91 | 79 | – | 1 (≈ 0.929 µM) | 113 | 177 | 38 | 113 | 177 | 314 | 38 | 64 | – | – | – | –
CCCCCCCCCC(=O)N[C@H](C(=O)N[C@H](CO)C(=O)N[C@H]1CCNC(=O)[C@H]([C@@H](C)O)NC(=O)[C@H](CCN)NC(=O)[C@H](CCN)NC(=O)[C@H](CC(C)C)NC(=O)[C@@H](Cc2ccccc2)NC(=O)[C@H](CCN)NC1=O)[C@@H](C)O [NAB 740, DA-Thr-DSer-cy[Dab-Dab-DPhe-Leu-Dab-Dab-Thr-]] (Decanoyl-T[dS][Dab][Dab][dF]L[Dab][Dab]T; lactam 3-C) | 95 | 95 | 95 | 16(−4) μg/ml | 198 ± 49 | 133 | – | 2 (≈ 1.81 µM) | 133 | 201 | 64 | 133 | – | 154 | 64 | 64 | 133 | 64 | – | –
CCCCCCCC(=O)N[C@H](C(=O)N[C@@H](CC)C(=O)N[C@H]1CCNC(=O)[C@H]([C@@H](C)O)NC(=O)[C@H](CCN)NC(=O)[C@H](CCN)NC(=O)[C@H](CC(C)C)NC(=O)[C@@H](Cc2ccccc2)NC(=O)[C@H](CCN)NC1=O)[C@@H](C)O [NAB 7061, OA-Thr-Abu-cy[Dab-Dab-DPhe-Leu-Dab-Dab-Thr-]] (Octanoyl-T[Abu][Dab][Dab][dF]L[Dab][Dab]T; lactam 3-C) | 0 | – | – | – | – | 0 | – | >32 | 0 | 0 | 0 | 0 | – | 50 | 0 | 0 | – | 0 | >32 | 0

From patent US8329645B2, “Polymyxin derivatives and uses thereof” (priority 2008, dated 2012)
